{
  "source": "paper PMC10648927",
  "about": "“Examining the activity of cefepime-taniborbactam against Burkholderia cepacia complex and Burkholderia gladioli isolated from cystic fibrosis patients in the United States” (Antimicrobial Agents and Chemotherapy, 2023)",
  "design_in_all_cases": "agar dilution MIC, growth inhibition of clinical Burkholderia isolates",
  "key": {"B. ambifaria AU20319": {"tested_on": "T1, B. ambifaria AU20319", "T1 construct": "AU20319", "test": "microbe, parasite or virus in culture", "details": "Burkholderia ambifaria, AU20319", "procedure,_shortened": "(§1)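 MICs by agar dilution against Bcc and B. gladioli clinical isolates, interpreted with CLSI breakpoints where available; K. pneumoniae ATCC 700603 (SHV-18) and ATCC BAA-1705 (KPC) served as quality controls.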"}, "B. cenocepacia AU0756": {"tested_on": "T2, B. cenocepacia AU0756", "T2 construct": "AU0756", "test": "microbe, parasite or virus in culture", "details": "Burkholderia cenocepacia, AU0756", "procedure,_shortened": "as §1"}, "B. cenocepacia AU19684": {"tested_on": "T3, B. cenocepacia AU19684", "T3 construct": "AU19684", "test": "microbe, parasite or virus in culture", "details": "Burkholderia cenocepacia, AU19684", "procedure,_shortened": "as §1"}, "B. cenocepacia AU20998": {"tested_on": "T4, B. cenocepacia AU20998", "T4 construct": "AU20998", "test": "microbe, parasite or virus in culture", "details": "Burkholderia cenocepacia, AU20998", "procedure,_shortened": "as §1"}, "B. contaminans AU15669": {"tested_on": "T5, B. contaminans AU15669", "T5 construct": "AU15669", "test": "organism not typed", "procedure,_shortened": "as §1"}, "B. contaminans AU17641": {"tested_on": "T6, B. contaminans AU17641", "T6 construct": "AU17641", "test": "organism not typed", "procedure,_shortened": "as §1"}, "B. gladioli AU0032": {"tested_on": "T7, B. gladioli AU0032", "T7 construct": "AU0032", "test": "organism not typed", "procedure,_shortened": "as §1"}, "B. gladioli AU1009": {"tested_on": "T8, B. gladioli AU1009", "T8 construct": "AU1009", "test": "organism not typed", "procedure,_shortened": "as §1"}, "B. gladioli AU29541": {"tested_on": "T9, B. gladioli AU29541", "T9 construct": "AU29541", "test": "organism not typed", "procedure,_shortened": "as §1"}, "B. multivorans AU14371": {"tested_on": "T10, B. multivorans AU14371", "T10 construct": "AU14371", "test": "microbe, parasite or virus in culture", "details": "Burkholderia multivorans, AU14371", "procedure,_shortened": "as §1"}, "B. multivorans AU19518": {"tested_on": "T11, B. multivorans AU19518", "T11 construct": "AU19518", "test": "microbe, parasite or virus in culture", "details": "Burkholderia multivorans, AU19518", "procedure,_shortened": "as §1"}, "B. multivorans AU22436": {"tested_on": "T12, B. multivorans AU22436", "T12 construct": "AU22436", "test": "microbe, parasite or virus in culture", "details": "Burkholderia multivorans, AU22436", "procedure,_shortened": "as §1"}, "B. multivorans AU23668": {"tested_on": "T13, B. multivorans AU23668", "T13 construct": "AU23668", "test": "microbe, parasite or virus in culture", "details": "Burkholderia multivorans, AU23668", "procedure,_shortened": "as §1"}, "B. multivorans AU28442": {"tested_on": "T14, B. multivorans AU28442", "T14 construct": "AU28442", "test": "microbe, parasite or virus in culture", "details": "Burkholderia multivorans, AU28442", "procedure,_shortened": "as §1"}, "B. multivorans AU29198": {"tested_on": "T15, B. multivorans AU29198", "T15 construct": "AU29198", "test": "microbe, parasite or virus in culture", "details": "Burkholderia multivorans, AU29198", "procedure,_shortened": "as §1"}, "B. vietnamiensis AU28056": {"tested_on": "T16, B. vietnamiensis AU28056", "T16 construct": "AU28056", "test": "microbe, parasite or virus in culture", "details": "Burkholderia vietnamiensis, AU28056", "procedure,_shortened": "as §1"}, "B. multivorans AU17534": {"tested_on": "T17, B. multivorans AU17534", "T17 construct": "AU17534", "test": "microbe, parasite or virus in culture", "details": "Burkholderia multivorans, AU17534", "procedure,_shortened": "as §1"}},
  "data": [
    {"smiles": "C[C@H]1COc2c(N3CCN(C)CC3)c(F)cc3c(=O)c(C(=O)O)cn1c23", "note": "[levofloxacin]", "values": [
      {"measurement": "MIC", "setting": "B. ambifaria AU20319", "value": 1, "unit": "µg/mL"},
      {"measurement": "MIC", "setting": "B. cenocepacia AU0756", "value": "> 32", "unit": "µg/mL"},
      {"measurement": "MIC", "setting": "B. cenocepacia AU19684", "value": "> 32", "unit": "µg/mL"},
      {"measurement": "MIC", "setting": "B. cenocepacia AU20998", "value": "> 32", "unit": "µg/mL"},
      {"measurement": "MIC", "setting": "B. contaminans AU15669", "value": 8, "unit": "µg/mL"},
      {"measurement": "MIC", "setting": "B. contaminans AU17641", "value": 4, "unit": "µg/mL"},
      {"measurement": "MIC", "setting": "B. gladioli AU0032", "value": 8, "unit": "µg/mL"},
      {"measurement": "MIC", "setting": "B. gladioli AU1009", "value": 0.5, "unit": "µg/mL"},
      {"measurement": "MIC", "setting": "B. gladioli AU29541", "value": 8, "unit": "µg/mL"},
      {"measurement": "MIC", "setting": "B. multivorans AU14371", "value": 2, "unit": "µg/mL"},
      {"measurement": "MIC", "setting": "B. multivorans AU19518", "value": 32, "unit": "µg/mL"},
      {"measurement": "MIC", "setting": "B. multivorans AU22436", "value": "> 32", "unit": "µg/mL"},
      {"measurement": "MIC", "setting": "B. multivorans AU23668", "value": 2, "unit": "µg/mL"},
      {"measurement": "MIC", "setting": "B. multivorans AU28442", "value": 16, "unit": "µg/mL"},
      {"measurement": "MIC", "setting": "B. multivorans AU29198", "value": 8, "unit": "µg/mL"},
      {"measurement": "MIC", "setting": "B. vietnamiensis AU28056", "value": 8, "unit": "µg/mL"}
    ]},
    {"smiles": "CO/N=C(\\C(=O)N[C@@H]1C(=O)N2C(C(=O)[O-])=C(C[N+]3(C)CCCC3)CS[C@H]12)c1csc(N)n1", "note": "[cefepime]", "values": [
      {"measurement": "MIC", "setting": "B. ambifaria AU20319", "value": "> 32", "unit": "µg/mL"},
      {"measurement": "MIC", "setting": "B. cenocepacia AU0756", "value": "> 32", "unit": "µg/mL"},
      {"measurement": "MIC", "setting": "B. cenocepacia AU19684", "value": "> 32", "unit": "µg/mL"},
      {"measurement": "MIC", "setting": "B. cenocepacia AU20998", "value": "> 32", "unit": "µg/mL"},
      {"measurement": "MIC", "setting": "B. contaminans AU15669", "value": "> 32", "unit": "µg/mL"},
      {"measurement": "MIC", "setting": "B. contaminans AU17641", "value": 32, "unit": "µg/mL"},
      {"measurement": "MIC", "setting": "B. gladioli AU0032", "value": "> 32", "unit": "µg/mL"},
      {"measurement": "MIC", "setting": "B. gladioli AU1009", "value": 16, "unit": "µg/mL"},
      {"measurement": "MIC", "setting": "B. gladioli AU29541", "value": 32, "unit": "µg/mL"},
      {"measurement": "MIC", "setting": "B. multivorans AU14371", "value": 8, "unit": "µg/mL"},
      {"measurement": "MIC", "setting": "B. multivorans AU17534", "value": "> 32", "unit": "µg/mL"},
      {"measurement": "MIC", "setting": "B. multivorans AU19518", "value": 32, "unit": "µg/mL"},
      {"measurement": "MIC", "setting": "B. multivorans AU22436", "value": 8, "unit": "µg/mL"},
      {"measurement": "MIC", "setting": "B. multivorans AU23668", "value": 4, "unit": "µg/mL"},
      {"measurement": "MIC", "setting": "B. multivorans AU28442", "value": "> 32", "unit": "µg/mL"},
      {"measurement": "MIC", "setting": "B. multivorans AU29198", "value": "> 32", "unit": "µg/mL"},
      {"measurement": "MIC", "setting": "B. vietnamiensis AU28056", "value": 16, "unit": "µg/mL"}
    ]},
    {"smiles": "C[C@@H](O)[C@H]1C(=O)N2C(C(=O)O)=C(S[C@@H]3CN[C@H](C(=O)N(C)C)C3)[C@H](C)[C@H]12", "note": "[meropenem]", "values": [
      {"measurement": "MIC", "setting": "B. ambifaria AU20319", "value": 4, "unit": "µg/mL"},
      {"measurement": "MIC", "setting": "B. cenocepacia AU0756", "value": 32, "unit": "µg/mL"},
      {"measurement": "MIC", "setting": "B. cenocepacia AU19684", "value": 8, "unit": "µg/mL"},
      {"measurement": "MIC", "setting": "B. cenocepacia AU20998", "value": 8, "unit": "µg/mL"},
      {"measurement": "MIC", "setting": "B. contaminans AU15669", "value": 16, "unit": "µg/mL"},
      {"measurement": "MIC", "setting": "B. contaminans AU17641", "value": 4, "unit": "µg/mL"},
      {"measurement": "MIC", "setting": "B. gladioli AU0032", "value": 2, "unit": "µg/mL"},
      {"measurement": "MIC", "setting": "B. gladioli AU1009", "value": 1, "unit": "µg/mL"},
      {"measurement": "MIC", "setting": "B. gladioli AU29541", "value": 8, "unit": "µg/mL"},
      {"measurement": "MIC", "setting": "B. multivorans AU14371", "value": 4, "unit": "µg/mL"},
      {"measurement": "MIC", "setting": "B. multivorans AU17534", "value": 16, "unit": "µg/mL"},
      {"measurement": "MIC", "setting": "B. multivorans AU19518", "value": 16, "unit": "µg/mL"},
      {"measurement": "MIC", "setting": "B. multivorans AU22436", "value": 8, "unit": "µg/mL"},
      {"measurement": "MIC", "setting": "B. multivorans AU23668", "value": 2, "unit": "µg/mL"},
      {"measurement": "MIC", "setting": "B. multivorans AU28442", "value": "> 32", "unit": "µg/mL"},
      {"measurement": "MIC", "setting": "B. multivorans AU29198", "value": 16, "unit": "µg/mL"},
      {"measurement": "MIC", "setting": "B. vietnamiensis AU28056", "value": 4, "unit": "µg/mL"}
    ]}
  ]
}
